{"source": "patent US20240374578A1", "about": "“USE OF MEDICINE FOR REDUCING IRON CONTENT IN BRAIN IN PREPARATION OF DRUG FOR TREATING AND/OR PREVENTING NEUROPSYCHIATRIC DISEASES” (SOOCHOW UNIVERSITY, priority 2022, published 2024)", "test_system": "morphine addiction in mice", "assay": "Morphine conditioned place preference scoring of mice", "assay_type": "in vivo, C57BL/6J mice", "conditions": "6 h before morphine 20 mg/kg/day i.p., 7 days, vs morphine group"}
{"smiles": "O=C(O)CNC(=O)c1ncc(-c2cccc(Cl)c2)cc1O", "note": "[Vadadustat]", "values": [{"measurement": "preference score on morphine-paired side", "setting": "Vadadustat 10 mg/kg/day i.p., FIG. 4", "result": "significantly reduced"}]}
{"smiles": "Cc1c(O)c(=O)ccn1C", "note": "[Deferiprone, 3-hydroxy-1,2-dimethyl-4-(1H)-pyridone]", "values": [{"measurement": "preference score on morphine-paired side", "setting": "Deferiprone 13 mg/mL, 1 μL into dorsal hippocampus, FIG. 5", "result": "significantly reduced"}]}
